Test results as given in US20130164347A1, “MULTILAYER POLYMERIC DRUG DELIVERY SYSTEM” (priority 2011, published 2013).

How the values were obtained:
[1] = In-vitro release of 5-FU from partially encapsulated multilayer polymeric films
Protocol: In-Vitro release of 5-Fluoro-Uracil (5-FU) has been quantified over time from Partially Encapsulated Multilayer Polymeric films.
The resulting test articles, 2.5 mm diameter×1.25 mm high, were immersed in a PBS solution supplemented by 2 percent FBS onto a shaker in an incubator at 37 degrees Celsius. Release of 5-FU was quantified by HPLC-UV as follows: after filtration, aliquots were injected onto an Agilent 1100 column (50×4.6 mm×3 um with guard column). The 5-FU detection was performed via a UV Detector (Wavelength: 265 nm). The flow rate was 1.0 mL/min. The mobile phase was a mixture of TFA (0.1 percent) and Acetonitrile.

[2] = Thermal decomposition of bioactive agent; format: physicochemical
[3] = In-vitro release of bimatoprost from fully encapsulated multilayer polymeric films; format: physicochemical; conditions: for release profile of bimatoprost: PBS + 2 percent FBS, 37 degrees Celsius
Protocol: In Vitro release studies were performed using the fully encapsulated polymeric films (wherein the carrier discs are fully encapsulated within the surrounding barrier layers) containing bimatoprost as prepared in Example 6.

[4] = partially encapsulated film, 30 percent w/w
[5] = fully encapsulated film laminated at 140 degrees Fahrenheit (60 degrees Celsius)

decomposition temperature [2] | release profile of bimatoprost ([3]; fully encapsulated film laminated at 131 degrees Fahrenheit (55 degrees Celsius)) | period of no or undetectable release [3, 5] | release profile of bimatoprost [3, 5] | drug released in the first 24 hours ([3]; monolayer 2 mm diameter carrier film compression molded at 152 degrees Fahrenheit (67 degrees Celsius)) | Compound | release profile of 5-FU ([1]; fully encapsulated films with no adhesive layers) | burst duration [1, 4] | rest period after burst [1, 4] | start of delayed sustained release [1, 4] | release profile of 5-FU ([1]; partially encapsulated film, 30 percent w/w, 2.5 mm disk, PBS + 2 percent FBS, 37 degrees Celsius)
– | – | – | – | – | O=c1[nH]cc(F)c(=O)[nH]1 [5-FU, 5-Fluoro-Uracil] | delayed sustained release | 2 days | approximately 9 days | ~11 days | bimodal release profile
70 degrees Celsius | zero-order release | 10 days | delayed sustained release | 99% | CCNC(=O)CCC/C=C\C[C@@H]1[C@@H](/C=C/[C@@H](O)CCc2ccccc2)[C@H](O)C[C@@H]1O [bimatoprost] | – | – | – | – | –
